According to the supplement of paper PMC4862054:

Columns and labels:
Conditions in all cases: incubation time: 72 h
[1] = test system: BT-474; assay: normalised viability (% of control), CellTiter-Blue; higher = more viable cells (about 100 = DMSO control)
Outline: (§1)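 Each entry is normalised viability at a single listed concentration within a series. It comes from breast cancer cell lines incubated 72 h with compound in 384-well plates, then measured with CellTiter-Blue fluorescence at 560/590 nm. Every plate was normalised between vehicle (100) and a positive kill control (0).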

[2] = test system: CAL-120; assay: as above
Outline: as §1

[3] = test system: CAL-148; assay: as above
Outline: as §1

[4] = test system: CAL-51; assay: as above
Outline: as §1

[5] = test system: DU-4475; assay: as above
Outline: as §1

[6] = test system: HCC1143; assay: as above
Outline: as §1

[7] = test system: HCC1599; assay: as above
Outline: as §1

[8] = test system: HCC1937; assay: as above
Outline: as §1

[9] = test system: HDQ-P1; assay: as above
Outline: as §1

[10] = test system: Hs578T; assay: as above
Outline: as §1

[11] = test system: MDA-MB-231; assay: as above
Outline: as §1

[12] = test system: MDA-MB-436; assay: as above
Outline: as §1

[13] = test system: MFM-223; assay: as above
Outline: as §1

[14] = test system: SK-BR-3; assay: as above
Outline: as §1

[15] = test system: BT-474; assay: drug sensitivity score (DSS), CellTiter-Blue viability (DSS (AUC-based score)); higher = stronger viability inhibition; extreme values may be limits of the assay
Method: (§2)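 DSRT with the CellTiter-Blue (resazurin reduction) viability readout, fluorescence 560/590 nm, 72 h incubation. Plates were normalised to DMSO and benzethonium chloride controls. DSS is computed from the area under the fitted dose-response curve (5 or 9 concentrations).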

[16] = test system: CAL-120; assay: as above
Method: as §2

[17] = test system: CAL-148; assay: as above
Method: as §2

[18] = test system: CAL-51; assay: as above
Method: as §2

[19] = test system: DU-4475; assay: as above
Method: as §2

[20] = test system: HCC1143; assay: as above
Method: as §2

[21] = test system: HCC1599; assay: as above
Method: as §2

[22] = test system: HCC1937; assay: as above
Method: as §2

[23] = test system: MDA-MB-231; assay: as above
Method: as §2

[24] = test system: MDA-MB-453; assay: as above
Method: as §2

O=P1(N(CCCl)CCCl)NCCCO1 (centres undefined) [Cyclophosphamide]
normalised viability [%]
Conditions | 12 nM | 40 nM | 120 nM | 400 nM | 4000 nM | 40000 nM
[1] | – | 121 | – | – | 119 | 127
[2] | – | 97.1 | – | – | 95.7 | 83.8
[3] | 100 | – | 102 | 109 | – | –
[4] | 111 | – | 99 | 111 | – | –
[5] | 110 | – | 90.9 | 113 | – | –
[6] | – | 84.1 | – | – | 93.6 | 87.3
[7] | – | 89.4 | – | – | 78 | 91.5
[8] | – | 98.3 | – | – | 111 | 98.5
[9] | 119 | – | 109 | 104 | – | –
[10] | – | 107 | – | – | 108 | 112
[11] | – | 101 | – | – | 96.9 | 96.9
[12] | – | 108 | – | – | 83.7 | 83.9
[13] | – | 92.1 | – | – | 98.9 | 98.5
[14] | – | 105 | – | – | 102 | 110

Conditions | drug sensitivity score
[15] | 0
[16] | 0
[17] | 0
[18] | 0
[19] | 0
[20] | 0
[21] | 0
[22] | 0
[23] | 0
[24] | 0

COC(=O)c1ccc2c(c1)NC(=O)/C2=C(\Nc1ccc(N(C)C(=O)CN2CCN(C)CC2)cc1)c1ccccc1 [BIBF 1120]
normalised viability [%]
Conditions | 3 nM | 10 nM | 30 nM | 100 nM | 1000 nM | 10000 nM
[1] | – | 127 | – | – | 92.5 | 58.6
[2] | – | 82.6 | – | – | 75.5 | 29.7
[3] | 93.5 | – | 99 | 97.7 | – | –
[4] | 104 | – | 96.3 | 100 | – | –
[5] | 94.6 | – | 100 | 91 | – | –
[6] | – | 91 | – | – | 103 | 56.7
[7] | – | 90.9 | – | – | 95.9 | 65.1
[8] | – | 144 | – | – | 130 | 84
[9] | 124 | – | 117 | 124 | – | –
[10] | – | 102 | – | – | 111 | 34
[11] | – | 97.6 | – | – | 120 | 2.46
[12] | – | 120 | – | – | 122 | 43.8
[13] | – | 99.5 | – | – | 57 | 36.6
[14] | – | 101 | – | – | 91.8 | 42.8

Conditions | drug sensitivity score
[15] | 3.34
[16] | 6.55
[17] | 0
[18] | 5.59
[19] | 2.02
[20] | 0
[21] | 0
[22] | 0
[23] | 4.3
[24] | 5.53
